Data from ChEMBL document CHEMBL3272154, “Synthesis of 1- and 2-substituted indazoles as anthelmintic agents” (1976).
Calls of active or inactive are those of the source. No cut-off for these calls is given here.

Columns and labels:
[1] = tested on: Trichinella spiralis; assay: Anthelmintic activity against Trichinella spiralis infected in sheep assessed as reduction in intestinal nematode burden at 15 mg/kg, po after 7 days post dose; type: functional; conditions: 168 h
[2] = tested on: Trichinella spiralis; assay: Anthelmintic activity against Trichinella spiralis infected in mouse assessed as reduction in nematode level at 25 mg/kg, po and 25 mg/kg, sc administered 8 hrs post infection; type: functional
[3] = tested on: Trichinella spiralis; assay: Anthelmintic activity against Trichinella spiralis infected in po dosed sheep assessed as reduction in intestinal nematode burden; type: functional, organism-based
[4] = tested on: Trichinella spiralis; assay: Anthelmintic activity against Trichinella spiralis infected in sheep assessed as reduction in intestinal nematode burden at 25 mg/kg, po after 7 days post dose; type: functional; conditions: 168 h

SMILES	inhibition in vivo at 15 mg/kg [1]	inhibition in vivo at 25 mg/kg [2]	Activity [3]	inhibition in vivo at 25 mg/kg [4]
CCCCCCCN(C)C(=O)Nc1nc2ccccc2[nH]1	0%	14%	–	–
CCCCCCCN(C)C(=O)n1cc2ccccc2n1	0%	45%	–	–
O=C(c1ccco1)n1ncc2ccccc21	0%	16%	–	–
CCCCCCN(C)C(=O)n1cc2cc(Cl)ccc2n1	–	40%	–	–
COC(=O)n1ncc2ccccc21	–	23%	–	–
O=C(OCc1ccccc1)n1cc2ccccc2n1	0%	74%	–	–
CCCCCCCN(C)C(=O)n1nc2ccccc2n1	–	–	Active	–
COC(=O)n1cc2ccccc2n1	–	26%	–	–
CCCCCCN(C)C(=O)n1ncc2ccc([N+](=O)[O-])cc21	–	41%	–	–
CCCCc1ccc2[nH]c(NC(=O)OC)nc2c1 [PARBENDAZOLE]	–	99%	–	99%
COC(=O)Nc1nc2ccccc2[nH]1 [CARBENDAZIM]	–	0%	–	98%
O=C(c1ccco1)n1cc2ccccc2n1	0%	58%	–	–
O=C(Nc1nc2ccccc2[nH]1)c1ccco1	–	–	–	99%
O=C(c1cnc2ccccc2n1)n1cc2ccccc2n1	–	36%	–	–
